From US20100267561A1, “HERBICIDAL PYRIDAZINONE DERIVATIVES” (priority 2007, published 2010)

Key:
Format in all cases: in vivo
[1] = tested on: rice (Oryza sativa); experiment: Test B flooded paddy test plant response
Outline: (§1)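 2-leaf plants; pots flooded 3 cm above soil; compound added to paddy water; depth maintained. Greenhouse 13–15 d. Visual rating vs controls, 0 (no effect) to 100 (complete control); dash = no result.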

[2] = tested on: barnyardgrass (Echinochloa crus-galli); experiment: Test B flooded paddy test plant response
Outline: as §1

[3] = tested on: umbrella sedge (Cyperus difformis); experiment: Test B flooded paddy test plant response
Outline: as §1

[4] = tested on: ducksalad (Heteranthera limosa); experiment: Test B flooded paddy test plant response
Outline: as §1

[5] = tested on: barnyardgrass (Echinochloa crus-galli); experiment: Test A pre-/postemergence plant response
Outline: (§2)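 Seeds in loam soil/sand blend treated preemergence by directed soil spray, with simultaneous postemergence spray on 2–10 cm plants at one- to two-leaf stage; compounds in non-phytotoxic solvent with surfactant. Injury visually rated versus untreated controls after about 10 days in greenhouse, 0 (no effect) to 100 (complete control).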

[6] = tested on: morningglory (Ipomoea coccinea); experiment: Test A pre-/postemergence plant response
Outline: as §2

[7] = tested on: wheat (Triticum aestivum); experiment: Test A pre-/postemergence plant response
Outline: as §2

[8] = tested on: velvetleaf (Abutilon theophrasti); experiment: Test A pre-/postemergence plant response
Outline: as §2

[9] = tested on: corn (Zea mays); experiment: Test A pre-/postemergence plant response
Outline: as §2

[10] = tested on: large crabgrass (Digitaria sanguinalis); experiment: Test A pre-/postemergence plant response
Outline: as §2

[11] = tested on: giant foxtail (Setaria faberi); experiment: Test A pre-/postemergence plant response
Outline: as §2

[12] = tested on: pigweed (Amaranthus retroflexus); experiment: Test A pre-/postemergence plant response
Outline: as §2

[13] = Flood (flooded paddy test), 62 g ai/ha, scale 0 to 100, 0 no effect, 100 complete control
[14] = Flood (flooded paddy test), 125 g ai/ha, scale 0 to 100, 0 no effect, 100 complete control
[15] = Flood (flooded paddy test), 250 g ai/ha, scale 0 to 100, 0 no effect, 100 complete control
[16] = Flood, 31 g ai/ha, scale 0 to 100
[17] = Postemergence, 125 g ai/ha, 0 to 100 scale, 0 no effect, 100 complete control
[18] = Postemergence, 500 g ai/ha, 0 to 100 scale, 0 no effect, 100 complete control
[19] = Preemergence, 125 g ai/ha, 0 to 100 scale (0 no effect, 100 complete control)
[20] = Preemergence, 500 g ai/ha, 0 to 100 scale (0 no effect, 100 complete control)

Structure (SMILES): Cc1cc(-c2ccc(Br)cc2)nn1-c1c(O)cnn(C)c1=O [Compound 4]
- Plant response rating, Rice [1, 13]: 40
- Plant response rating, Rice [1, 14]: 70
- Plant response rating, Rice [1, 15]: 80
- Plant response rating, Rice [1, 16]: 15
- Plant response rating, Barnyardgrass [2, 13]: 60
- Plant response rating, Barnyardgrass [2, 14]: 70
- Plant response rating, Barnyardgrass [2, 15]: 75
- Plant response rating, Barnyardgrass [2, 16]: 0
- Plant response rating, Sedge, Umbrella [3, 13]: 60
- Plant response rating, Sedge, Umbrella [3, 14]: 90
- Plant response rating, Sedge, Umbrella [3, 15]: 100
- Plant response rating, Sedge, Umbrella [3, 16]: 40
- Plant response rating, Ducksalad [4, 13]: 75
- Plant response rating, Ducksalad [4, 14]: 85
- Plant response rating, Ducksalad [4, 15]: 85
- Plant response rating, Ducksalad [4, 16]: 0
- Plant response rating, Barnyardgrass [5, 17]: 100
- Plant response rating, Barnyardgrass [5, 18]: 100
- Plant response rating, Barnyardgrass [5, 19]: 100
- Plant response rating, Barnyardgrass [5, 20]: 100
- Plant response rating, Morningglory [6, 17]: 0
- Plant response rating, Morningglory [6, 18]: 20
- Plant response rating, Morningglory [6, 19]: 0
- Plant response rating, Morningglory [6, 20]: 0
- Plant response rating, Wheat [7, 17]: 60
- Plant response rating, Wheat [7, 18]: 80
- Plant response rating, Wheat [7, 19]: 70
- Plant response rating, Wheat [7, 20]: 100
- Plant response rating, Velvetleaf [8, 17]: 20
- Plant response rating, Velvetleaf [8, 18]: 60
- Plant response rating, Velvetleaf [8, 19]: 0
- Plant response rating, Velvetleaf [8, 20]: 10
- Plant response rating, Corn [9, 17]: 90
- Plant response rating, Corn [9, 18]: 100
- Plant response rating, Corn [9, 19]: 70
- Plant response rating, Corn [9, 20]: 90
- Plant response rating, Crabgrass, Large [10, 17]: 100
- Plant response rating, Crabgrass, Large [10, 18]: 100
- Plant response rating, Crabgrass, Large [10, 19]: 100
- Plant response rating, Crabgrass, Large [10, 20]: 100
- Plant response rating, Foxtail, Giant [11, 17]: 100
- Plant response rating, Foxtail, Giant [11, 18]: 100
- Plant response rating, Foxtail, Giant [11, 19]: 100
- Plant response rating, Foxtail, Giant [11, 20]: 100
- Plant response rating, Pigweed [12, 17]: 0
- Plant response rating, Pigweed [12, 18]: 20
- Plant response rating, Pigweed [12, 19]: 0
- Plant response rating, Pigweed [12, 20]: 0

Structure (SMILES): Cc1cc(-c2ccc(Br)cc2)nn1-c1c(OC(=O)OC(C)C)cnn(C)c1=O [Compound 6]
- Plant response rating, Rice [1, 13]: 30
- Plant response rating, Rice [1, 14]: 80
- Plant response rating, Rice [1, 15]: 90
- Plant response rating, Rice [1, 16]: 20
- Plant response rating, Barnyardgrass [2, 13]: 40
- Plant response rating, Barnyardgrass [2, 14]: 80
- Plant response rating, Barnyardgrass [2, 15]: 90
- Plant response rating, Barnyardgrass [2, 16]: 0
- Plant response rating, Sedge, Umbrella [3, 13]: 70
- Plant response rating, Sedge, Umbrella [3, 14]: 85
- Plant response rating, Sedge, Umbrella [3, 15]: 95
- Plant response rating, Sedge, Umbrella [3, 16]: 30
- Plant response rating, Ducksalad [4, 13]: 50
- Plant response rating, Ducksalad [4, 14]: 60
- Plant response rating, Ducksalad [4, 15]: 70
- Plant response rating, Ducksalad [4, 16]: 40
- Plant response rating, Barnyardgrass [5, 17]: 90
- Plant response rating, Barnyardgrass [5, 18]: 100
- Plant response rating, Barnyardgrass [5, 19]: 90
- Plant response rating, Barnyardgrass [5, 20]: 100
- Plant response rating, Morningglory [6, 17]: 30
- Plant response rating, Morningglory [6, 18]: 50
- Plant response rating, Morningglory [6, 19]: 30
- Plant response rating, Morningglory [6, 20]: 40
- Plant response rating, Wheat [7, 17]: 50
- Plant response rating, Wheat [7, 18]: 70
- Plant response rating, Wheat [7, 19]: 80
- Plant response rating, Wheat [7, 20]: 90
- Plant response rating, Velvetleaf [8, 17]: 40
- Plant response rating, Velvetleaf [8, 18]: 50
- Plant response rating, Velvetleaf [8, 19]: 40
- Plant response rating, Velvetleaf [8, 20]: 50
- Plant response rating, Corn [9, 17]: 100
- Plant response rating, Corn [9, 18]: 100
- Plant response rating, Corn [9, 19]: 80
- Plant response rating, Corn [9, 20]: 90
- Plant response rating, Crabgrass, Large [10, 17]: 90
- Plant response rating, Crabgrass, Large [10, 18]: 90
- Plant response rating, Crabgrass, Large [10, 19]: 100
- Plant response rating, Crabgrass, Large [10, 20]: 100
- Plant response rating, Foxtail, Giant [11, 17]: 90
- Plant response rating, Foxtail, Giant [11, 18]: 90
- Plant response rating, Foxtail, Giant [11, 19]: 100
- Plant response rating, Foxtail, Giant [11, 20]: 100
- Plant response rating, Pigweed [12, 17]: 0
- Plant response rating, Pigweed [12, 18]: 30
- Plant response rating, Pigweed [12, 19]: 20
- Plant response rating, Pigweed [12, 20]: 40
